Laboratory results taken from ChEMBL document CHEMBL4732258, “Pyxinol bearing amino acid residues: Easily achievable and promising modulators of P-glycoprotein-mediated multidrug resistance” (Eur J Med Chem, 2021).

Assays:
Type in all cases: cell-based
[1] = Cytotoxicity against human KBV cells assessed as cell viability at 10 uM incubated for 72 hrs by MTT assay; conditions: read-out: Activity
KBV [2] = assay: Reversal of Pgp-mediated paclitaxel resistance in human KBV cells assessed as cell viability at 10 uM in presence of paclitaxel incubated for 72 hrs by MTT assay
KBV [3] = assay: Reversal of Pgp-mediated paclitaxel resistance in human KBV cells assessed as cell viability at 5 uM in presence of paclitaxel incubated for 72 hrs by MTT assay

| Compound | viability at 72 h, 10 µM [1] [%] | Activity (KBV [2]) [%] | Activity (KBV [3]) [%] | Activity (KBV [2]; filed as modulator) [%] | Activity (KBV [3]; filed as modulator) [%] |
| --- | --- | --- | --- | --- | --- |
| CC(C)(O)[C@@H]1CC[C@@](C)([C@H]2CC[C@]3(C)[C@@H]2[C@H](O)C[C@@H]2[C@@]4(C)CC[C@H](O)C(C)(C)[C@@H]4CC[C@]23C)O1 | 81 | 72 | 74 | – | – |
| CC(C)(C)OC(=O)C[C@H](NC(=O)OC(C)(C)C)C(=O)O[C@H]1CC[C@]2(C)[C@H]3C[C@@H](O)[C@@H]4[C@@H]([C@]5(C)CC[C@@H](C(C)(C)O)O5)CC[C@@]4(C)[C@]3(C)CC[C@H]2C1(C)C | 88 | – | – | 17 | 35 |
| CC(C)(C)OC(=O)CC[C@H](NC(=O)OC(C)(C)C)C(=O)O[C@H]1CC[C@]2(C)[C@H]3C[C@@H](O)[C@@H]4[C@@H]([C@]5(C)CC[C@H](C(C)(C)O)O5)CC[C@@]4(C)[C@]3(C)CC[C@H]2C1(C)C | 82 | – | – | 19 | 31 |
| CC(C)[C@H](N)C(=O)O[C@H]1CC[C@]2(C)[C@H]3C[C@@H](O)[C@@H]4[C@@H]([C@]5(C)CC[C@H](C(C)(C)O)O5)CC[C@@]4(C)[C@]3(C)CC[C@H]2C1(C)C | 84 | – | – | 23 | 33 |
| CC(C)(C)OC(=O)N[C@@H](Cc1cn(C(=O)OC(C)(C)C)c2ccccc12)C(=O)O[C@H]1CC[C@]2(C)[C@H]3C[C@@H](O)[C@@H]4[C@@H]([C@]5(C)CC[C@@H](C(C)(C)O)O5)CC[C@@]4(C)[C@]3(C)CC[C@H]2C1(C)C | 137 | 147 | 138 | – | – |
| CC(C)(O)[C@H]1CC[C@@](C)([C@H]2CC[C@]3(C)[C@@H]2[C@H](O)C[C@@H]2[C@@]4(C)CC[C@H](O)C(C)(C)[C@@H]4CC[C@]23C)O1 | 91 | 63 | 83 | – | – |
| CC(C)(O)[C@H]1CC[C@@](C)([C@H]2CC[C@]3(C)[C@@H]2[C@H](O)C[C@@H]2[C@@]4(C)CC[C@H](OC(=O)[C@@H](N)CCC(=O)O)C(C)(C)[C@@H]4CC[C@]23C)O1 | 106 | 72 | 105 | – | – |
| CC(C)(C)OC(=O)N[C@@H](Cc1ccc(OC(C)(C)C)cc1)C(=O)O[C@H]1CC[C@]2(C)[C@H]3C[C@@H](O)[C@@H]4[C@@H]([C@]5(C)CC[C@H](C(C)(C)O)O5)CC[C@@]4(C)[C@]3(C)CC[C@H]2C1(C)C | 98 | 71 | 107 | – | – |
| CC(C)(C)OC(=O)NCC(=O)O[C@H]1CC[C@]2(C)[C@H]3C[C@@H](O)[C@@H]4[C@@H]([C@]5(C)CC[C@H](C(C)(C)O)O5)CC[C@@]4(C)[C@]3(C)CC[C@H]2C1(C)C | 106 | – | – | 22 | 28 |
| C[C@@H](OCc1ccccc1)[C@H](NC(=O)OC(C)(C)C)C(=O)O[C@H]1CC[C@]2(C)[C@H]3C[C@@H](O)[C@@H]4[C@@H]([C@]5(C)CC[C@H](C(C)(C)O)O5)CC[C@@]4(C)[C@]3(C)CC[C@H]2C1(C)C | 138 | 144 | 138 | – | – |
| CC(C)(O)[C@@H]1CC[C@@](C)([C@H]2CC[C@]3(C)[C@@H]2[C@H](O)C[C@@H]2[C@@]4(C)CC[C@H](OC(=O)[C@@H](N)Cc5ccccc5)C(C)(C)[C@@H]4CC[C@]23C)O1 | 100 | – | – | 29 | 35 |
| C[C@@H](OCc1ccccc1)[C@H](N)C(=O)O[C@H]1CC[C@]2(C)[C@H]3C[C@@H](O)[C@@H]4[C@@H]([C@]5(C)CC[C@H](C(C)(C)O)O5)CC[C@@]4(C)[C@]3(C)CC[C@H]2C1(C)C | 20 | – | – | 18 | 31 |
| CC(C)(O)[C@@H]1CC[C@@](C)([C@H]2CC[C@]3(C)[C@@H]2[C@H](O)C[C@@H]2[C@@]4(C)CC[C@H](OC(=O)[C@@H](N)CCCCN)C(C)(C)[C@@H]4CC[C@]23C)O1 | 81 | 82 | 98 | – | – |
| CC(C)(O)[C@H]1CC[C@@](C)([C@H]2CC[C@]3(C)[C@@H]2[C@H](O)C[C@@H]2[C@@]4(C)CC[C@H](OC(=O)[C@@H](N)CCCCN)C(C)(C)[C@@H]4CC[C@]23C)O1 | 45 | – | 85 | 29 | – |
| CC(C)(O)[C@@H]1CC[C@@](C)([C@H]2CC[C@]3(C)[C@@H]2[C@H](O)C[C@@H]2[C@@]4(C)CC[C@H](OC(=O)[C@@H](N)Cc5c[nH]c6ccccc56)C(C)(C)[C@@H]4CC[C@]23C)O1 | 52 | – | – | 27 | 30 |
| CC(C)(C)OC(=O)N[C@@H](Cc1ccc(OC(C)(C)C)cc1)C(=O)O[C@H]1CC[C@]2(C)[C@H]3C[C@@H](O)[C@@H]4[C@@H]([C@]5(C)CC[C@@H](C(C)(C)O)O5)CC[C@@]4(C)[C@]3(C)CC[C@H]2C1(C)C | 104 | – | 78 | 22 | – |

| Compound | viability at 72 h, 10 µM [1] [%] | Activity (KBV [2]) [%] | Activity (KBV [3]) [%] | Activity (KBV [2]; filed as modulator) [%] | Activity (KBV [3]; filed as modulator) [%] |
| --- | --- | --- | --- | --- | --- |
| CC(C)(C)OC(=O)NCCCC[C@H](NC(=O)OC(C)(C)C)C(=O)O[C@H]1CC[C@]2(C)[C@H]3C[C@@H](O)[C@@H]4[C@@H]([C@]5(C)CC[C@@H](C(C)(C)O)O5)CC[C@@]4(C)[C@]3(C)CC[C@H]2C1(C)C | 123 | – | – | 21 | 28 |
| CC(C)(O)[C@@H]1CC[C@@](C)([C@H]2CC[C@]3(C)[C@@H]2[C@H](O)C[C@@H]2[C@@]4(C)CC[C@H](OC(=O)[C@@H](N)Cc5ccc(O)cc5)C(C)(C)[C@@H]4CC[C@]23C)O1 | 97 | – | 87 | 35 | – |
| CC(C)(O)[C@H]1CC[C@@](C)([C@H]2CC[C@]3(C)[C@@H]2[C@H](O)C[C@@H]2[C@@]4(C)CC[C@H](OC(=O)[C@@H](N)Cc5ccc(O)cc5)C(C)(C)[C@@H]4CC[C@]23C)O1 | 87 | – | – | 27 | 28 |
| CC(C)(C)OC(=O)N[C@@H](Cc1ccccc1)C(=O)O[C@H]1CC[C@]2(C)[C@H]3C[C@@H](O)[C@@H]4[C@@H]([C@]5(C)CC[C@H](C(C)(C)O)O5)CC[C@@]4(C)[C@]3(C)CC[C@H]2C1(C)C | 125 | – | – | 25 | 48 |
| CC(C)[C@H](NC(=O)OC(C)(C)C)C(=O)O[C@H]1CC[C@]2(C)[C@H]3C[C@@H](O)[C@@H]4[C@@H]([C@]5(C)CC[C@H](C(C)(C)O)O5)CC[C@@]4(C)[C@]3(C)CC[C@H]2C1(C)C | 120 | – | – | 20 | 31 |
| CC(C)(O)[C@@H]1CC[C@@](C)([C@H]2CC[C@]3(C)[C@@H]2[C@H](O)C[C@@H]2[C@@]4(C)CC[C@H](OC(=O)[C@@H](N)CCC(=O)O)C(C)(C)[C@@H]4CC[C@]23C)O1 | 112 | 92 | 95 | – | – |
| CC(C)(C)OC(=O)N[C@@H](Cc1cn(C(=O)OC(C)(C)C)c2ccccc12)C(=O)O[C@H]1CC[C@]2(C)[C@H]3C[C@@H](O)[C@@H]4[C@@H]([C@]5(C)CC[C@H](C(C)(C)O)O5)CC[C@@]4(C)[C@]3(C)CC[C@H]2C1(C)C | 132 | 161 | 165 | – | – |
| CC(C)(O)[C@H]1CC[C@@](C)([C@H]2CC[C@]3(C)[C@@H]2[C@H](O)C[C@@H]2[C@@]4(C)CC[C@H](OC(=O)[C@@H](N)CC(=O)O)C(C)(C)[C@@H]4CC[C@]23C)O1 | 95 | 61 | 106 | – | – |
| CC(C)(O)[C@@H]1CC[C@@](C)([C@H]2CC[C@]3(C)[C@@H]2[C@H](O)C[C@@H]2[C@@]4(C)CC[C@H](OC(=O)CN)C(C)(C)[C@@H]4CC[C@]23C)O1 | 86 | 63 | 98 | – | – |
| CC(C)[C@H](NC(=O)OC(C)(C)C)C(=O)O[C@H]1CC[C@]2(C)[C@H]3C[C@@H](O)[C@@H]4[C@@H]([C@]5(C)CC[C@@H](C(C)(C)O)O5)CC[C@@]4(C)[C@]3(C)CC[C@H]2C1(C)C | 128 | 110 | 106 | – | – |
| CC(C)(C)OC(=O)NCCCC[C@H](NC(=O)OC(C)(C)C)C(=O)O[C@H]1CC[C@]2(C)[C@H]3C[C@@H](O)[C@@H]4[C@@H]([C@]5(C)CC[C@H](C(C)(C)O)O5)CC[C@@]4(C)[C@]3(C)CC[C@H]2C1(C)C | 147 | – | – | 31 | 34 |
| CC(C)(C)OC(=O)NCC(=O)O[C@H]1CC[C@]2(C)[C@H]3C[C@@H](O)[C@@H]4[C@@H]([C@]5(C)CC[C@@H](C(C)(C)O)O5)CC[C@@]4(C)[C@]3(C)CC[C@H]2C1(C)C | 107 | – | – | 18 | 30 |
| CC(C)(C)OC(=O)CC[C@H](NC(=O)OC(C)(C)C)C(=O)O[C@H]1CC[C@]2(C)[C@H]3C[C@@H](O)[C@@H]4[C@@H]([C@]5(C)CC[C@@H](C(C)(C)O)O5)CC[C@@]4(C)[C@]3(C)CC[C@H]2C1(C)C | 46 | – | – | 17 | 19 |
| C[C@@H](OCc1ccccc1)[C@H](NC(=O)OC(C)(C)C)C(=O)O[C@H]1CC[C@]2(C)[C@H]3C[C@@H](O)[C@@H]4[C@@H]([C@]5(C)CC[C@@H](C(C)(C)O)O5)CC[C@@]4(C)[C@]3(C)CC[C@H]2C1(C)C | 76 | – | – | 19 | 24 |
| CC(C)(O)[C@H]1CC[C@@](C)([C@H]2CC[C@]3(C)[C@@H]2[C@H](O)C[C@@H]2[C@@]4(C)CC[C@H](OC(=O)[C@@H](N)Cc5ccccc5)C(C)(C)[C@@H]4CC[C@]23C)O1 | 74 | – | – | 21 | 26 |
